Results taken from patent US7928107B2, “Quinazolines useful as modulators of ion channels” (Vertex Pharmaceuticals Incorporated, priority 2004, dated 2011).

Molecular target: NaV 1.8 channel (Homo sapiens, UniProt Q9Y5Y9)
Assay: Activity against NaV 1.8 channel (optical membrane potential assay)
Format: cell-based
Procedure, shortened: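 Cells expressing the NaV of interest loaded with CC2-DMPE (30 min, room temperature) then DiSBAC2(3) with ABSCl and veratridine; compound incubated 20–30 min. Depolarization triggered by sodium add-back and read on VIPR as 460/580 nm FRET ratio (Rf/Ri), normalized to tetracaine and untreated controls.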

Chain of NaV 1.8 channel (Q9Y5Y9 whole entry): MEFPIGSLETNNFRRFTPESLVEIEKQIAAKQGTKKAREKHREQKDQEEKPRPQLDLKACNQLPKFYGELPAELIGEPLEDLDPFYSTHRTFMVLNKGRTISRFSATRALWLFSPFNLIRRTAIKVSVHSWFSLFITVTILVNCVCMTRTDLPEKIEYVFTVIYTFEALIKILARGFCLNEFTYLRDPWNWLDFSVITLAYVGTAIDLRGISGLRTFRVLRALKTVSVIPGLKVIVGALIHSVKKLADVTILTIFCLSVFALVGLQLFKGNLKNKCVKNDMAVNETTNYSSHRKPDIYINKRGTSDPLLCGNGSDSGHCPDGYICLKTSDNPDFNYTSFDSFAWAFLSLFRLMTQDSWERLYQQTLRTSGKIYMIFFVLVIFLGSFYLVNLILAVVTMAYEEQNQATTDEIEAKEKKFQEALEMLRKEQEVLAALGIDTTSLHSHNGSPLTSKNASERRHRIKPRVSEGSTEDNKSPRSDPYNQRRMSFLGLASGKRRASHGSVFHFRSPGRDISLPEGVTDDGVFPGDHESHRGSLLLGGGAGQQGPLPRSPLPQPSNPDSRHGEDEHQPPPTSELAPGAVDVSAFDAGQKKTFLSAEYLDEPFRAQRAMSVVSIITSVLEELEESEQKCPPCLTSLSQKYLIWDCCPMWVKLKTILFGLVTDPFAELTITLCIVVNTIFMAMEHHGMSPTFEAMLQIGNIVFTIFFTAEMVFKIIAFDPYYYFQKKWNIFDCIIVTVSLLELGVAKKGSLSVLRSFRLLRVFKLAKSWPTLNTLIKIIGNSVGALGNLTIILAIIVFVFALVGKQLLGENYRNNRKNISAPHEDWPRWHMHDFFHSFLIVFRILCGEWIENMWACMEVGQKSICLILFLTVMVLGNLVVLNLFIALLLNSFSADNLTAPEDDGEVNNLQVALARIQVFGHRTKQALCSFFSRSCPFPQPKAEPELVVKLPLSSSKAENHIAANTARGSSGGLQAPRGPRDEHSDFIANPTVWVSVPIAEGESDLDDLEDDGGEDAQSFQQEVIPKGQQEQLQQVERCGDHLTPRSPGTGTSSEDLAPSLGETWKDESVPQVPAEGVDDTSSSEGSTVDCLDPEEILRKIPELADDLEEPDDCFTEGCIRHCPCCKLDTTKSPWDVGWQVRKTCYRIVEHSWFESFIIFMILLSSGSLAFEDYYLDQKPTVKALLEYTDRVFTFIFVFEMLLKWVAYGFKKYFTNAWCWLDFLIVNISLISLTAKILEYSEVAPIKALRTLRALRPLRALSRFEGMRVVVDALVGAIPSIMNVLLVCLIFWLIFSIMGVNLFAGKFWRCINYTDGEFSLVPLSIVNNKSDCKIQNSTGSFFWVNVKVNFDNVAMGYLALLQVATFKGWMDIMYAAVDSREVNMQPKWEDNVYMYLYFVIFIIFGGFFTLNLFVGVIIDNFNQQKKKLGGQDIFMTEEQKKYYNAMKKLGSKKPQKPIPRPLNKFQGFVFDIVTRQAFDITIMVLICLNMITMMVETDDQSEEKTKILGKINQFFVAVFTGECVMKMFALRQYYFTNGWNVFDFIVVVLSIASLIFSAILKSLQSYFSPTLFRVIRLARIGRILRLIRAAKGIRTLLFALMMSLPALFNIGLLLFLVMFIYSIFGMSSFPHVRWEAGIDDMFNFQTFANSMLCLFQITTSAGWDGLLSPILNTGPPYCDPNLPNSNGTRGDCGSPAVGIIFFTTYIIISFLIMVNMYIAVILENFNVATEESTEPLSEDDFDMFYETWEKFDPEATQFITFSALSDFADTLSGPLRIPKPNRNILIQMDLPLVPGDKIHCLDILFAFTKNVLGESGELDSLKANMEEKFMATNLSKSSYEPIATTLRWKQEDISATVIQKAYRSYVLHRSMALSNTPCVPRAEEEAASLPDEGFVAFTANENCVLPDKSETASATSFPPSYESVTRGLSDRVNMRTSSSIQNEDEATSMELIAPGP

| IC50 | SMILES |
| --- | --- |
| 2 to 10 µM | Cc1ccc2c(N3CCN(C(=O)C(O)C(C)C)CC3)nc(-c3ccccc3O)nc2c1 (centres unmarked) [Example 113, 2-Hydroxy-1-(4-(2-(2-hydroxyphenyl)-7-methylquinazolin-4-yl)piperazin-1-yl)-3-methylbutan-1-one] |
| 2 to 10 µM | O=C(N[C@@H]1CCN(c2nc(-c3ccccc3O)nc3ccc(F)cc23)C1)OCC1CCCCO1 (stereo partly drawn) [Example 339, (Tetrahydro-2H-pyran-2-yl)methyl (R)-1-(6-fluoro-2-(2-hydroxyphenyl)quinazolin-4-yl)pyrrolidin-3-ylcarbamate] |
| < 2 µM | Cc1ccc2c(N3CCC[C@@H](NC(=O)O[C@@H]4CCOC4)C3)nc(-c3ccccc3O)nc2c1 [Example 207, (R)-Tetrahydrofuran-3-yl (R)-1-(2-(2-hydroxyphenyl)-7-methylquinazolin-4-yl)piperidin-3-ylcarbamate] |
| 2 to 10 µM | Cc1ccc2c(N3CCN(C(=O)[C@H](O)C(F)(F)F)CC3)nc(-c3ccccc3O)nc2c1 [Example 177, (S)-3,3,3-Trifluoro-2-hydroxy-1-(4-(2-(2-hydroxyphenyl)-7-methylquinazolin-4-yl)piperazin-1-yl)propan-1-one] |
| 2 to 10 µM | Cc1ccc2c(N3CCCC(CNC(=O)O[C@@H]4CCOC4)C3)nc(-c3ccccc3O)nc2c1 (stereo partly drawn) [Example 210, (R)-Tetrahydrofuran-3-yl (1-(2-(2-hydroxyphenyl)-7-methylquinazolin-4-yl)piperidin-3-yl)methylcarbamate] |
| 2 to 10 µM | CSCCC(O)C(=O)N1CCN(c2nc(-c3ccccc3O)nc3cc(C)ccc23)CC1 (centres unmarked) [Example 153, 2-Hydroxy-1-(4-(2-(2-hydroxyphenyl)-7-methylquinazolin-4-yl)piperazin-1-yl)-4-(methylthio)butan-1-one] |
| < 2 µM | Cc1ccc2c(N3CCN(C(=O)OCC(C)C)CC3)nc(-c3c(C)cccc3O)nc2c1 [Example 193] |
| > 10 µM | Cc1ccc2c(N3CC[C@@H](NC(=O)c4ccncc4)C3)nc(-c3ccccc3O)nc2c1 [Example 353, N—((R)-1-(2-(2-Hydroxyphenyl)-7-methylquinazolin-4-yl)pyrrolidin-3-yl)isonicotinamide] |
| > 10 µM | Cc1ccc2c(N3CCN(C(=O)[C@H](O)CC(=O)N(C)C)CC3)nc(-c3ccccc3O)nc2c1 [Example 104, (R)-3-Hydroxy-4-(4-(2-(2-hydroxyphenyl)-7-methylquinazolin-4-yl)piperazin-1-yl)-N,N-dimethyl-4-oxobutanamide] |
| > 10 µM | Cc1ccc2c(N3CCC(NC(=O)COC4CC(C)CCC4C(C)C)CC3)nc(-c3ccccc3O)nc2c1 (centres unmarked) [Example 222, 2-(2-Isopropyl-5-methylcyclohexyloxy)-N-(1-(2-(2-hydroxyphenyl)-7-methylquinazolin-4-yl)piperidin-4-yl)acetamide] |
| > 10 µM | Cc1ccc2c(N3CC(C(=O)NCc4cccc(OC(F)(F)F)c4)C3)nc(-c3ccccc3O)nc2c1 [Example 403, N-(3-(Trifluoromethoxy)benzyl)-1-(2-(2-hydroxyphenyl)-7-methylquinazolin-4-yl)azetidine-3-carboxamide] |
| 2 to 10 µM | O=C(O[C@H]1CCOC1)N1CCN(c2nc(-c3ccccc3O)nc3ccc(F)cc23)CC1 [Example 117, (S)-Tetrahydrofuran-3-yl 4-(6-fluoro-2-(2-hydroxyphenyl)quinazolin-4-yl)piperazine-1-carboxylate] |
| > 10 µM | Cc1ccc2c(N3CCN(C(=O)C(O)CCl)CC3)nc(-c3ccccc3O)nc2c1 (centres unmarked) [Example 179, 3-Chloro-2-hydroxy-1-(4-(2-(2-hydroxyphenyl)-7-methylquinazolin-4-yl)piperazin-1-yl)propan-1-one] |
| < 2 µM | CCCOC(=O)NC[C@@H]1CCN(c2nc(-c3ccccc3O)nc3cc(C)ccc23)C1 [Example 367, Propyl ((S)-1-(2-(2-hydroxyphenyl)-7-methylquinazolin-4-yl)pyrrolidin-3-yl)methylcarbamate] |
